One may read the half-life as the time in which the quantity being followed falls by half. Read a high half-life as slow loss.

The text below walks through data of patent US20170107257A1, “CYCLIC APELIN ANALOGS” (LANTHIOPEP B.V., priority 2014, published 2017).

Numbered stars: 1 amine (or outer) side, 2 acyl side, 3 side chain; on linkers, the order of the positions; unused ones are H or OH. Bridge positions count the residues as written; N and C are the ends. Square brackets hold non-standard residues; d marks the D form. Peptide text beside a SMILES is read from it. ξ: configuration not given here. ξAbu(3ξ-yl) = CC(C(N[*:1])C(=O)[*:2])[*:3]; pGlu = O=C1CC[C@@H](C(=O)O)N1

A short description of data set [1]: Stability of apelin analogs in rat plasma. The data set is classed as in vitro ADME. The conditions noted are these: rat, plasma, pH 7.4. As for the experimental part: Stability of apelin analogs in rat plasma. […] Samples were quenched by acidifying to final concentration of 5% TFA. Samples were analyzed on HPLC. Peak heights were plotted as relative to the initial peak heights.

The target of the next data set is T1, hAPJ (Homo sapiens, UniProt P35414).
T1 sequence (P35414 1-380): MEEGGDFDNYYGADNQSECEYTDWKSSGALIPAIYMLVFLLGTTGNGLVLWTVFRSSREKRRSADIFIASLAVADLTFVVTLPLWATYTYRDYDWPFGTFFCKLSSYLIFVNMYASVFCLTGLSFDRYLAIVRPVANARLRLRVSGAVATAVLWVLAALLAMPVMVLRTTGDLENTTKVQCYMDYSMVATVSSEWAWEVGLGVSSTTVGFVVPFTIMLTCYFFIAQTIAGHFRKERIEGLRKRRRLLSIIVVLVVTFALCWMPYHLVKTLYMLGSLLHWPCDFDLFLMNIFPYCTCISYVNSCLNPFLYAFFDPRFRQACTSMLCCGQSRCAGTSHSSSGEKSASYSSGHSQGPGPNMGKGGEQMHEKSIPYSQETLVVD
Nature of the data set: beta arrestin assay (DiscoverX). Format: cell-based. The conditions noted are these: ratio of β-arrestin EC50 to cAMP EC50.

Procedure for hAPJ: (Me)lan apelin variants were tested with cAMP and beta arrestin assays from the company DiscoverX.

On to `CSCC[C@H](NC(=O)[C@@H]1CCCN1C(=O)[C@@H]1CSC(C)C(NC(=O)[C@H](CC(C)C)NC(=O)[C@H](CCCNC(=N)N)NC(=O)[C@@H]2CCCN2C(=O)[C@H](CCCNC(=N)N)NC(=O)[C@@H]2CCC(=O)N2)C(=O)N[C@@H](Cc2c[nH]cn2)C(=O)N[C@@H](CCCCN)C(=O)NCC(=O)N1)C(=O)N1CCC[C@H]1C(=O)N[C@@H](Cc1ccccc1)C(=O)O` (some centres unmarked) [pEApeM7, pERPRLmeLanHKGmeLanPMPF] ([pGlu]RPRL[ξAbu(3ξ-yl)]HKGCPMPF-OH; thioether 6-10), for which the half-life at 0.1 mg/ml in data set [1] was 15 h.

Compound `CSCC[C@H](NC(=O)[C@@H]1CCCN1C(=O)CNC(=O)[C@@H]1CSC(C)C(NC(=O)[C@H](CC(C)C)NC(=O)[C@H](CCCNC(=N)N)NC(=O)[C@@H]2CCCN2C(=O)[C@H](CCCNC(=N)N)NC(=O)[C@@H]2CCC(=O)N2)C(=O)N[C@@H](Cc2c[nH]cn2)C(=O)N[C@@H](CCCCN)C(=O)N1)C(=O)N1CCC[C@H]1C(=O)N[C@@H](Cc1ccccc1)C(=O)O` (some centres unmarked) [pEApeM6, pERPRLmeLanHKmeLanGPMPF] ([pGlu]RPRL[ξAbu(3ξ-yl)]HKCGPMPF-OH; thioether 6-9) showed a half-life at 0.1 mg/ml in data set [1] of 8 h.

Take `CSCC[C@H](NC(=O)[C@@H]1CSCC(NC(=O)[C@H](CC(C)C)NC(=O)[C@H](CCCNC(=N)N)NC(=O)[C@@H]2CCCN2C(=O)[C@H](CCCNC(=N)N)NC(=O)[C@@H]2CCC(=O)N2)C(=O)N[C@@H](Cc2c[nH]cn2)C(=O)N[C@@H](CCCCN)C(=O)NCC(=O)N2CCC[C@H]2C(=O)N1)C(=O)N1CCC[C@H]1C(=O)N[C@@H](Cc1ccccc1)C(=O)O` (some centres unmarked) [pEApeM12S, pERPRLLanHKGPLanMPF]: the half-life at 0.1 mg/ml in data set [1] was 3 h.

As to `CC(C)C[C@H](NC(=O)[C@H](CCCNC(=N)N)NC(=O)[C@@H]1CCCN1C(=O)[C@H](CCCNC(=N)N)NC(=O)[C@@H]1CCC(=O)N1)C(=O)NC1CSCC(C(=O)N2CCC[C@H]2C(=O)N[C@@H](Cc2ccccc2)C(=O)O)NC(=O)[C@@H]2CCCN2C(=O)CNC(=O)[C@H](CCCCN)NC(=O)[C@H](Cc2c[nH]cn2)NC1=O` (single isomer, unassigned) [pEApeM9S II, pERPRLLanHKGPLanPF], at hAPJ, the “Ratio β-arrestin/cAMP” value was determined as 200.

With `CSCC[C@@H]1NC(=O)[C@@H]2CCCN2C(=O)CNC(=O)[C@H](CCCCN)NC(=O)[C@H](Cc2c[nH]cn2)NC(=O)C(NC(=O)[C@H](CC(C)C)NC(=O)[C@H](CCCNC(=N)N)NC(=O)[C@@H]2CCCN2C(=O)[C@H](CCCNC(=N)N)NC(=O)[C@@H]2CCC(=O)N2)CSC[C@@H](C(=O)N[C@@H](Cc2ccccc2)C(=O)O)NC1=O` (some centres unmarked) [pEApeM26S I, pERPRLLanHKGPMLanF], the half-life at 0.1 mg/ml in data set [1] is over 24 h.

For the compound `CSCC[C@H](NC(=O)[C@@H]1CCCN1C(=O)CNC(=O)[C@@H]1CSC(C)C(NC(=O)[C@H](CC(C)C)NC(=O)[C@H](CCCNC(=N)N)NC(=O)[C@@H]2CCCN2C(=O)[C@H](CCCNC(=N)N)NC(=O)[C@@H]2CCC(=O)N2)C(=O)N[C@@H](Cc2c[nH]cn2)C(=O)N[C@@H](CCCCN)C(=O)N1)C(=O)N1CCC[C@H]1C(=O)N[C@@H](C)C(=O)O` (some centres unmarked) [pERPRLmeLanHKmeLanGPMPA] ([pGlu]RPRL[ξAbu(3ξ-yl)]HKCGPMPA-OH; thioether 6-9), the half-life at 0.1 mg/ml in data set [1] is 7 h.

For the compound `CSCC[C@H](NC(=O)[C@@H]1CCCN1C(=O)[C@@H]1CSCC(NC(=O)[C@H](CC(C)C)NC(=O)[C@H](CCCNC(=N)N)NC(=O)[C@@H]2CCCN2C(=O)[C@H](CCCNC(=N)N)NC(=O)[C@@H]2CCC(=O)N2)C(=O)N[C@@H](C)C(=O)N[C@@H](Cc2c[nH]cn2)C(=O)N[C@@H](CCCCN)C(=O)N1)C(=O)N1CCC[C@H]1C(=O)N[C@@H](Cc1ccccc1)C(=O)O` (some centres unmarked) [pEApeI5cS I, pERPRLLanAHKLanPMPF], the half-life at 0.1 mg/ml in data set [1] was 3 h.

Turning to `CSCC[C@H](NC(=O)[C@@H]1CCCN1C(=O)CNC(=O)[C@@H]1CSC(C)C(NC(=O)[C@H](CC(C)C)NC(=O)[C@H](CCCNC(=N)N)NC(=O)[C@@H]2CCCN2C(=O)[C@H](CCCNC(=N)N)NC(=O)[C@@H]2CCC(=O)N2)C(=O)N[C@@H](Cc2c[nH]cn2)C(=O)N[C@@H](CCCCN)C(=O)N1)C(=O)N[C@H](C(=O)N[C@@H](Cc1ccccc1)C(=O)O)C(C)C` (some centres unmarked) [pERPRLmeLanHKmeLanGPMVF] ([pGlu]RPRL[ξAbu(3ξ-yl)]HKCGPMVF-OH; thioether 6-9), in data set [1], the half-life at 0.1 mg/ml was 10 h.
